As a reminder, the IC50 is the concentration needed to halve the response being measured. A high value points to weaker potency in that assay. One may read the CC50 as the concentration at which the toxic effect on the cells reaches its halfway point. Lower therefore signals harm at low concentration.

The target of one data set is TgDXR (Toxoplasma gondii, UniProt S8ESX0). Briefly: T. gondii DXR enzyme inhibition assay (NADPH oxidation, absorption at 340 nm). In kind it is biochemical. How it is done:
The enzymatic assays were conducted at 30°C in 96 well plates using a total reaction volume of 150 µl containing 100 nM of purified TgDXR protein in dimeric state, 100 µM of NADPH and 4 mM of MgCl2 as cofactors, 100 µM of DXP as substrate in 50 mM HEPES buffer (pH 7.5) containing 50 µg/ml of BSA. For the screening, DXR inhibitors were tested for their inhibitory activity and their IC50 measurements at concentrations ranging from 100 µM to 3.05 nM, in dilution steps 1:2.
To optimize and to ensure the interaction of NADPH and its enzyme binding pocket, the assay solution was incubated for 10 min at 37°C. Then, the reaction was commenced with the addition of 100 µM of DXP to the complete assay mixture. The reaction was monitored by measuring the absorption at 340 nm every minute for 1 h using a microplate reader (Tecan® 200 Pro, Tecan Group, Männedorf, Switzerland). The initial velocity of the reactions were calculated, the values were then used in the software GraphPad PRISM™ (Version 9.5.1; San Diego, CA, U.S.A.) for determinations of the IC50 values.

Data set [1] concerns T. gondii ME49 tachyzoites. As to the kind of experiment: T. gondii in vitro growth assay ([3H]-uracil incorporation). In kind it is cell-based, Toxoplasma gondii. How it is done: With the aim to assess the inhibitory in vitro effect on parasite growth, T. gondii growth assays were performed as described previously [[78-80]]. Compounds, previously diluted in culture media in appropriate stock solutions, were added to confluent monolayers of Hs27 cells in 96-flat well plates at various concentrations. Then, freshly harvested tachyzoites were added to the cultures at a multiplicity of infection of 1:1 (parasite/host cell ratio). As controls, untreated and uninfected Hs27 cells, 24 h pre-stimulated and T. gondii infected cells with human interferon γ (IFN γ) (300 U/ml) (Merck, Darmstadt, Germany, #I17001) and T. gondii infected cells only were employed. After 48 h incubation, proliferating toxoplasmas were labelled with 0.3 μCi/well of tritiated uracil (^3H-U; 5 mCi, Hartmann Analytic, Braunschweig, Germany, #ART1782). After 28-30 h of incubation, plates were frozen at -20°C overnight. Cells were then thawed and harvested (Basic96 Harvester; Zinsser Analytic, Skatron Instruments, Northridge, CA, U.S.A.), purified with glass fibre filters (Printed Filtermat A 102 mm × 258 mm; PerkinElmer, Waltham, MA, U.S.A.) and dried at 130°C for 15-20 min. Dried filters were then wrapped into transparent plastic covers, dunked with 10 ml scintillation cocktail (Betaplate Scint; PerkinElmer, Waltham, MA, U.S.A., #1205-440), sealed and then loaded into metal cassettes and the incorporation of ^3H-uracil into the RNA of proliferating toxoplasmas was measured using a β-counter, a liquid scintillation counter that measure the […] (Betaplate Liquid Scintillation Counter 1205; LKB-[…], Melbourne, Australia). All data sets were normalized to 100% of the positive control. The dose-response curves of the compounds were fitted by means of the statistics software GraphPad PRISMTM (Version 9.5.1; San Diego, CA, U.S.A.). The minimal concentrations of compounds required for 50% inhibition of the parasite (IC50 values) were determined by non-linear regression analysis. Pyrimethamine was used as reference anti-toxoplasma compound.

A short description of data set [2]: MTT cytotoxicity assay on host cells. The following applies: human, Hs27 fibroblasts, 24 h incubation. In kind it is cell-based. How it is done:
The method based on the reduction of the tetrazolium dye MTT [3-(4,5-dimethylthiazole-2-yl)-2,5-diphenyltetrazolium bromide] to its purple insoluble formazan by mitochondrial NAD(P)H-dependent cellular oxidoreductase enzymes in living cells, previously described by Mosmann was employed to assess the cytotoxic effects of the examined DXR inhibitors on the host cells, as previously described [[78–80]]. Briefly, Hs27 cells were cultured in 96-well plates at a concentration of 5 × 10^4/well in (IMDM, Gibco–Thermo Fisher Scientific, Waltham, MA, U.S.A., #12440053) with a volume of 100 µl per well and incubated at 37°C overnight. Then, eleven two-fold serially diluted concentrations of the investigated compounds ranging from […] were prepared and added to each well. Hs27 cells were then incubated for 24 h in humidified atmosphere of 5% CO2 in air. Controls included wells containing medium alone without cells (blank), untreated Hs27 cells, DMSO (negative control) and staurosporine (0.031, 0.062, 0.125, 0.25, 0.5, 1 µM) (Merck, Darmstadt, Germany, #S4400) as apoptosis inducer. After incubation, the culture media was replaced with 100 µl of DMEM medium without phenol (Gibco-Thermo Fisher Scientific, Waltham, MA, U.S.A., #21041025) plus 10% heat-inactivated (FBS Standard, South America origin, FBS, 2 µm sterile filtered, PAN-Biotech, Aidenbach, Germany, #P30-3306), and […] 2-mercaptoethanol (Gibco-Thermo Fisher Scientific, Waltham, MA, U.S.A., #21985023). Thereafter, the MTT reagent was added to each well and analysis conducted following the manufacture instructions (CyQuant MTT Cell Viability Assay Kit, Thermo Fisher Scientific, Waltham, MA, U.S.A., #V-13154). The absorbance was measured at 570 nm on an ELISA microplate reer (TECAN Sunrise, Männedorf, Switzerland) and the percentage of viability was calculated when compared with the untreated control. The data set was subsequently adjusted by applying blank correction. Cell viability values expressed as percentage of the negative control value were calculated as follows: %Cellviability=meanabsorbanceoftreatedwells−blank/meanabsorbanceofnegativecontrol−blank×100. The cytotoxicity of each compound was expressed as half maximal cytotoxic concentration (CC50 values) against Hs27 cells. These values were calculated by a non-linear regression using GraphPad PRISM™ statistics software package (Version 9.5.1; San Diego, CA, U.S.A.) plotting the percentage viability against the log of compound concentrations.

The test system of a further data set is human fibroblasts Hs27. As to the kind of experiment: MTT cytotoxicity assay on host cells. In kind it is cell-based. The settings on record: concentration range 0.19–200 µM. Background: Tetrazolium dyes change colour on reduction, which living cells bring about.

Sequence of TgDXR (S8ESX0 entry or part of it): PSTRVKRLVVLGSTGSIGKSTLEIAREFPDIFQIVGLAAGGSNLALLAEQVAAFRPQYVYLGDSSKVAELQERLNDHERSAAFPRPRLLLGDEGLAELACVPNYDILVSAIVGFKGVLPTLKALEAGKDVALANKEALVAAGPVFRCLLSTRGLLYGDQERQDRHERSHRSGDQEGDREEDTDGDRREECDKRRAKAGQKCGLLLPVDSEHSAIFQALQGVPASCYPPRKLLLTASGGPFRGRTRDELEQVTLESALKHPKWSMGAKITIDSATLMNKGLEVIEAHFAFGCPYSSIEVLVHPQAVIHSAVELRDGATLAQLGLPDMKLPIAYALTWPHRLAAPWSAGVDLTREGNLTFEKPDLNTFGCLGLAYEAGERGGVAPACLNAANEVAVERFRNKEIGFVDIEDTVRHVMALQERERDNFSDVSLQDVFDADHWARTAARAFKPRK

As for `O=CN(O)CCCP(=O)(O)O` [Compound 1, Fosmidomycin, reference compound], the IC50 was 1.03 ± 0.21 µM against TgDXR and above 200 µM in data set [1] (Toxoplasma gondii, T. gondii type II ME49 strain in Hs27 host cells, n = 6). In addition, the “activity against T. gondii growth (in words)” value in data set [1] (T. gondii type II ME49 strain, [3H]-uracil incorporation) was “no activity”. The molecule also gave a CC50 at 24 h in data set [2] above 200 µM. In the data set with human fibroblasts Hs27, the “host cell cytotoxicity (in words)” value was “did not show any detectable host cytotoxicity”.

For the origin of these results see publication PMC11346426, “1-Deoxy-D-xylulose 5-phosphate reductoisomerase as target for anti Toxoplasma gondii agents: crystal structure, biochemical characterization and biological evaluation of inhibitors” (Biochemical Journal, 2024).
